US9238039B2, “Pyrazolo[1,5-A]pyrimidines for antiviral treatment” (Gilead Sciences, Inc., priority 2010, dated 2016)

System: RSV strain A2
Test: RSV antiviral cytoprotection assay in Hep2 cells (96-well and 384-well format, Cell TiterGlo read-out)
Assay type: cell-based, Respiratory Syncytial Virus (RSV)
Conditions: human respiratory syncytial virus, HEp-2, 0.5 uM; RSV-induced cytopathic effect in Hep2 cells; calculated from fitted dose response curve, normalized to 0% and 100%

How did the inhibition at 0.5 µM turn out when CS(=O)(=O)Nc1ccc(Cl)cc1C(=O)N1CCCC[C@H]1c1cc2nc(N3CC(O)C3)cc(N3CC4(COC4)C3)n2n1 [Compound 58] was run?
Its inhibition at 0.5 µM is 99%.

With CS(=O)(=O)Nc1ccc(Cl)cc1C(=O)N1CCCC[C@H]1c1cc2nc(N3CC(O)C3)cc(N3CC(O)C3)n2n1 [Compound 59] as the compound, how does the inhibition at 0.5 µM read?
Its inhibition at 0.5 µM is 100%.

Which inhibition at 0.5 µM does the source give for Cc1cc(C2CC2)nc2cc([C@@H]3CCCCN3C(=O)c3cc(Cl)ccc3NS(C)(=O)=O)nn12 [Compound 60] here?
Its inhibition at 0.5 µM is 100%.

Which inhibition at 0.5 µM does the source give for Cc1ccc(NS(C)(=O)=O)c(C(=O)N2CCCC[C@H]2c2cc3nc(C4CC4)cc(N4CCOCC4)n3n2)c1 [Compound 62] here?
Its inhibition at 0.5 µM is 100%.

How did the inhibition at 0.5 µM turn out when CS(=O)(=O)Nc1ccc(Cl)cc1C(=O)N1CCCC[C@H]1c1cc2nc(C3CC3)cc(N3CCOCC3)n2n1 [Compound 63] was run?
Its inhibition at 0.5 µM is 98%.

CS(=O)(=O)Nc1ccc(Cl)cc1C(=O)N1CCCC[C@H]1c1cc2nc(C3CC3)cc(N3CCC3)n2n1 [Compound 64] was tested. Which inhibition at 0.5 µM did it give?
The inhibition at 0.5 µM was 98%.

Cc1ccc(NS(C)(=O)=O)c(C(=O)N2CCCC[C@H]2c2cc3nc(C4CC4)cc(N4CCC4)n3n2)c1 [Compound 65] was tested. Which inhibition at 0.5 µM did it give?
Its inhibition at 0.5 µM is 100%.

CC(=O)Nc1ccc(Cl)cc1C(=O)N1CCCC[C@H]1c1cc2nc(C3CC3)cc(C)n2n1 [Compound 66] was tested. Which inhibition at 0.5 µM did it give?
The inhibition at 0.5 µM was 99%.

How did the inhibition at 0.5 µM turn out when CS(=O)(=O)Nc1ccc(Cl)cc1C(=O)N1CCCC[C@H]1c1cc2nc(N3CCC3)cc(N3CCOCC3)n2n1 [Compound 67] was run?
The inhibition at 0.5 µM was 100%.

How did the inhibition at 0.5 µM turn out when CS(=O)(=O)Nc1ccc(Cl)cc1C(=O)N1CCCC[C@H]1c1cc2nc(N3CC(N)C3)cc(N3CCOCC3)n2n1 [Compound 68] was run?
The inhibition at 0.5 µM was 100%.

For CS(=O)(=O)Nc1ccc(Cl)cc1C(=O)N1CCCC[C@H]1c1cc2nc(N3CC(O)C3)cc(N3CCOCC3)n2n1 [Compound 69], which inhibition at 0.5 µM is on record?
The inhibition at 0.5 µM was 100%.

CS(=O)(=O)Nc1ccc(Cl)cc1C(=O)N1CCCC[C@H]1c1cc2nc(N3CCCO3)cc(N3CCOCC3)n2n1 [Compound 70] was tested. Which inhibition at 0.5 µM did it give?
Its inhibition at 0.5 µM is 99%.

Which inhibition at 0.5 µM does the source give for CS(=O)(=O)Nc1ccc(Cl)cc1C(=O)N1CCCC[C@H]1c1cc2nc(N3CC[C@@H](O)C3)cc(N3CCOCC3)n2n1 [Compound 71] here?
The inhibition at 0.5 µM was 95%.

CS(=O)(=O)Nc1ccc(Cl)cc1C(=O)N1CCCC[C@H]1c1cc2nc(N3CC(F)C3)cc(N3CCOCC3)n2n1 [Compound 72] was tested. Which inhibition at 0.5 µM did it give?
Its inhibition at 0.5 µM is 98%.

For CS(=O)(=O)Nc1ccc(Cl)cc1C(=O)N1CCCC[C@H]1c1cc2nc(C3CCC3)cc(N3CCOCC3)n2n1 [Compound 73], which inhibition at 0.5 µM is on record?
The inhibition at 0.5 µM was 99%.

With CS(=O)(=O)Nc1ccc(Cl)cc1C(=O)N1CCCC[C@H]1c1cc2nc(N3CCC3)cc(N3CCOC3)n2n1 [Compound 74] as the compound, how does the inhibition at 0.5 µM read?
Its inhibition at 0.5 µM is 100%.

With CS(=O)(=O)Nc1ccc(Cl)cc1C(=O)N1CCCC[C@H]1c1cc2nc(N3CCC3)cc(N3CC4(COC4)C3)n2n1 [Compound 75] as the compound, how does the inhibition at 0.5 µM read?
Its inhibition at 0.5 µM is 100%.

Which inhibition at 0.5 µM does the source give for CN(C)[C@H]1CCN(c2cc(N3CCC3)nc3cc([C@@H]4CCCCN4C(=O)c4cc(Cl)ccc4NS(C)(=O)=O)nn23)C1 [Compound 76] here?
Its inhibition at 0.5 µM is 100%.

Which inhibition at 0.5 µM does the source give for CS(=O)(=O)Nc1ccc(Cl)cc1C(=O)N1CCCC[C@H]1c1cc2nc(N3CC(O)C3)cc(N3CCOC3)n2n1 [Compound 77] here?
The inhibition at 0.5 µM was 100%.

With CNC1CCN(c2nc3cc([C@@H]4CCCCN4C(=O)c4cc(Cl)ccc4NS(C)(=O)=O)nn3cc2C)C1 (stereo partly drawn) [Compound 78] as the compound, how does the inhibition at 0.5 µM read?
Its inhibition at 0.5 µM is 98%.

With CS(=O)(=O)Nc1ccc(Br)cc1C(=O)N1CCCC[C@H]1c1cc2nc(N3CCC3)cc(N3CCOCC3)n2n1 [Compound 79] as the compound, how does the inhibition at 0.5 µM read?
Its inhibition at 0.5 µM is 100%.

How did the inhibition at 0.5 µM turn out when CS(=O)(=O)Nc1ccc(Br)cc1C(=O)N1CCCC[C@H]1c1cc2nc(N3CC(O)C3)cc(N3CCOCC3)n2n1 [Compound 80] was run?
Its inhibition at 0.5 µM is 100%.

CS(=O)(=O)Nc1ccc(Cl)cc1C(=O)N1CCCC[C@H]1c1cc2nc(N3CC(O)C3)cc(N3CCC(O)CC3)n2n1 [Compound 81] was tested. Which inhibition at 0.5 µM did it give?
Its inhibition at 0.5 µM is 100%.

How did the inhibition at 0.5 µM turn out when Cc1cc(N2CC(O)C2)nc2cc([C@@H]3CCCCN3C(=O)c3cc(Br)ccc3NS(C)(=O)=O)nn12 [Compound 82] was run?
The inhibition at 0.5 µM was 100%.

How did the inhibition at 0.5 µM turn out when CS(=O)(=O)Nc1ccc(Cl)cc1C(=O)N1CCCC[C@H]1c1cc2nc(N3CC(O)C3)cc(N3CCN(CC(F)(F)F)CC3)n2n1 [Compound 83] was run?
The inhibition at 0.5 µM was 98%.

With CS(=O)(=O)Nc1ccc(Cl)cc1C(=O)N1CCCC[C@H]1c1cc2nc(N3CCC3)cc(N3CCN(CC(F)(F)F)CC3)n2n1 [Compound 84] as the compound, how does the inhibition at 0.5 µM read?
Its inhibition at 0.5 µM is 100%.

With Cc1ccc(NS(C)(=O)=O)c(C(=O)N2CCCC[C@H]2c2cc3nc(C)c(C)c(-c4ccccc4)n3n2)c1 [Compound 86] as the compound, how does the inhibition at 0.5 µM read?
Its inhibition at 0.5 µM is 99%.

Same assay, conditions: human respiratory syncytial virus, HEp-2, RSV-induced cytopathic effects, Hep2 cells; class symbols

For CS(=O)(=O)Nc1ccc(Cl)cc1C(=O)N1CCCC[C@H]1c1cc2nc(N3CC(O)C3)cc(N3CC4(COC4)C3)n2n1 [Compound 58], which EC50 is on record?
Its EC50 is 0.1 to 100 nM.

For CS(=O)(=O)Nc1ccc(Cl)cc1C(=O)N1CCCC[C@H]1c1cc2nc(N3CC(O)C3)cc(N3CC(O)C3)n2n1 [Compound 59], which EC50 is on record?
Its EC50 is 0.1 to 100 nM.

With Cc1cc(C2CC2)nc2cc([C@@H]3CCCCN3C(=O)c3cc(Cl)ccc3NS(C)(=O)=O)nn12 [Compound 60] as the compound, how does the EC50 read?
The EC50 was 0.1 to 100 nM.

Cc1ccc(NS(C)(=O)=O)c(C(=O)N2CCCC[C@H]2c2cc3nc(C4CC4)cc(N4CCOCC4)n3n2)c1 [Compound 62] was tested. Which EC50 did it give?
Its EC50 is 0.1 to 100 nM.

For CS(=O)(=O)Nc1ccc(Cl)cc1C(=O)N1CCCC[C@H]1c1cc2nc(C3CC3)cc(N3CCOCC3)n2n1 [Compound 63], which EC50 is on record?
Its EC50 is 0.1 to 100 nM.

For CS(=O)(=O)Nc1ccc(Cl)cc1C(=O)N1CCCC[C@H]1c1cc2nc(C3CC3)cc(N3CCC3)n2n1 [Compound 64], which EC50 is on record?
Its EC50 is 0.1 to 100 nM.

For Cc1ccc(NS(C)(=O)=O)c(C(=O)N2CCCC[C@H]2c2cc3nc(C4CC4)cc(N4CCC4)n3n2)c1 [Compound 65], which EC50 is on record?
The EC50 was 0.1 to 100 nM.

How did the EC50 turn out when CC(=O)Nc1ccc(Cl)cc1C(=O)N1CCCC[C@H]1c1cc2nc(C3CC3)cc(C)n2n1 [Compound 66] was run?
Its EC50 is 0.1 to 100 nM.

How did the EC50 turn out when CS(=O)(=O)Nc1ccc(Cl)cc1C(=O)N1CCCC[C@H]1c1cc2nc(N3CCC3)cc(N3CCOCC3)n2n1 [Compound 67] was run?
The EC50 was 0.1 to 100 nM.

How did the EC50 turn out when CS(=O)(=O)Nc1ccc(Cl)cc1C(=O)N1CCCC[C@H]1c1cc2nc(N3CC(N)C3)cc(N3CCOCC3)n2n1 [Compound 68] was run?
Its EC50 is 0.1 to 100 nM.

Which EC50 does the source give for CS(=O)(=O)Nc1ccc(Cl)cc1C(=O)N1CCCC[C@H]1c1cc2nc(N3CC(O)C3)cc(N3CCOCC3)n2n1 [Compound 69] here?
The EC50 was 0.1 to 100 nM.

For CS(=O)(=O)Nc1ccc(Cl)cc1C(=O)N1CCCC[C@H]1c1cc2nc(N3CCCO3)cc(N3CCOCC3)n2n1 [Compound 70], which EC50 is on record?
Its EC50 is 0.1 to 100 nM.

For CS(=O)(=O)Nc1ccc(Cl)cc1C(=O)N1CCCC[C@H]1c1cc2nc(N3CC[C@@H](O)C3)cc(N3CCOCC3)n2n1 [Compound 71], which EC50 is on record?
The EC50 was 0.1 to 100 nM.

Which EC50 does the source give for CS(=O)(=O)Nc1ccc(Cl)cc1C(=O)N1CCCC[C@H]1c1cc2nc(N3CC(F)C3)cc(N3CCOCC3)n2n1 [Compound 72] here?
The EC50 was 0.1 to 100 nM.

With CS(=O)(=O)Nc1ccc(Cl)cc1C(=O)N1CCCC[C@H]1c1cc2nc(C3CCC3)cc(N3CCOCC3)n2n1 [Compound 73] as the compound, how does the EC50 read?
Its EC50 is 0.1 to 100 nM.

CS(=O)(=O)Nc1ccc(Cl)cc1C(=O)N1CCCC[C@H]1c1cc2nc(N3CCC3)cc(N3CCOC3)n2n1 [Compound 74] was tested. Which EC50 did it give?
Its EC50 is 0.1 to 100 nM.

How did the EC50 turn out when CS(=O)(=O)Nc1ccc(Cl)cc1C(=O)N1CCCC[C@H]1c1cc2nc(N3CCC3)cc(N3CC4(COC4)C3)n2n1 [Compound 75] was run?
The EC50 was 0.1 to 100 nM.

For CN(C)[C@H]1CCN(c2cc(N3CCC3)nc3cc([C@@H]4CCCCN4C(=O)c4cc(Cl)ccc4NS(C)(=O)=O)nn23)C1 [Compound 76], which EC50 is on record?
Its EC50 is 0.1 to 100 nM.

Which EC50 does the source give for CS(=O)(=O)Nc1ccc(Cl)cc1C(=O)N1CCCC[C@H]1c1cc2nc(N3CC(O)C3)cc(N3CCOC3)n2n1 [Compound 77] here?
Its EC50 is 0.1 to 100 nM.

CNC1CCN(c2nc3cc([C@@H]4CCCCN4C(=O)c4cc(Cl)ccc4NS(C)(=O)=O)nn3cc2C)C1 (stereo partly drawn) [Compound 78] was tested. Which EC50 did it give?
Its EC50 is 0.1 to 100 nM.

For CS(=O)(=O)Nc1ccc(Br)cc1C(=O)N1CCCC[C@H]1c1cc2nc(N3CCC3)cc(N3CCOCC3)n2n1 [Compound 79], which EC50 is on record?
Its EC50 is 0.1 to 100 nM.

Which EC50 does the source give for CS(=O)(=O)Nc1ccc(Br)cc1C(=O)N1CCCC[C@H]1c1cc2nc(N3CC(O)C3)cc(N3CCOCC3)n2n1 [Compound 80] here?
Its EC50 is 0.1 to 100 nM.

With CS(=O)(=O)Nc1ccc(Cl)cc1C(=O)N1CCCC[C@H]1c1cc2nc(N3CC(O)C3)cc(N3CCC(O)CC3)n2n1 [Compound 81] as the compound, how does the EC50 read?
The EC50 was 0.1 to 100 nM.

With Cc1cc(N2CC(O)C2)nc2cc([C@@H]3CCCCN3C(=O)c3cc(Br)ccc3NS(C)(=O)=O)nn12 [Compound 82] as the compound, how does the EC50 read?
The EC50 was 0.1 to 100 nM.

With CS(=O)(=O)Nc1ccc(Cl)cc1C(=O)N1CCCC[C@H]1c1cc2nc(N3CC(O)C3)cc(N3CCN(CC(F)(F)F)CC3)n2n1 [Compound 83] as the compound, how does the EC50 read?
The EC50 was 0.1 to 100 nM.

CS(=O)(=O)Nc1ccc(Cl)cc1C(=O)N1CCCC[C@H]1c1cc2nc(N3CCC3)cc(N3CCN(CC(F)(F)F)CC3)n2n1 [Compound 84] was tested. Which EC50 did it give?
The EC50 was 0.1 to 100 nM.

Which EC50 does the source give for Cc1ccc(NS(C)(=O)=O)c(C(=O)N2CCCC[C@H]2c2cc3nc(C)c(C)c(-c4ccccc4)n3n2)c1 [Compound 86] here?
Its EC50 is 0.1 to 100 nM.
